Laboratory results from the NIST ThermoML archive (doi:10.1016/j.jct.2006.02.001).

Tests used:
[1] = refractive index (Na D-line) (dimensionless); xn = mol fraction of the nth substance listed; conditions: 101 kPa, Liquid
[2] = xn = mol fraction of the nth substance listed; conditions: 101 kPa, Liquid

COc1ccccc1 [anisole] + c1ccccc1
Conditions | mass density, 288.15 K [kg/m3] | mass density, 293.15 K [kg/m3] | mass density, 298.15 K [kg/m3] | mass density, 303.15 K [kg/m3] | refractive index, 288.15 K | refractive index, 293.15 K | refractive index, 298.15 K | refractive index, 303.15 K
[1], x1 = 0.105 | – | – | – | – | 1.5076 | 1.5032 | 1.5001 | 1.4884
[1], x1 = 0.201 | – | – | – | – | 1.51 | 1.5051 | 1.5019 | 1.4914
[1], x1 = 0.3173 | – | – | – | – | 1.5127 | 1.5072 | 1.5041 | 1.4949
[1], x1 = 0.4192 | – | – | – | – | 1.5149 | 1.509 | 1.5058 | 1.4978
[1], x1 = 0.5126 | – | – | – | – | 1.5168 | 1.5105 | 1.5074 | 1.5003
[1], x1 = 0.6139 | – | – | – | – | 1.5188 | 1.5121 | 1.5089 | 1.5029
[1], x1 = 0.7067 | – | – | – | – | 1.5206 | 1.5134 | 1.5103 | 1.5052
[1], x1 = 0.797 | – | – | – | – | 1.5222 | 1.5147 | 1.5115 | 1.5073
[1], x1 = 0.9002 | – | – | – | – | 1.524 | 1.516 | 1.5129 | 1.5096
[1], x1 = 1 | – | – | – | – | 1.5256 | 1.5172 | 1.5141 | 1.5117
[2], x1 = 0.105 | 898.53 | 891.31 | 888.2 | 882.91 | – | – | – | –
[2], x1 = 0.201 | 911.14 | 904.23 | 900.97 | 895.75 | – | – | – | –
[2], x1 = 0.3173 | 925.73 | 919.17 | 915.76 | 910.6 | – | – | – | –
[2], x1 = 0.4192 | 937.94 | 931.66 | 928.1 | 923 | – | – | – | –
[2], x1 = 0.5126 | 948.66 | 942.64 | 938.93 | 933.89 | – | – | – | –
[2], x1 = 0.6139 | 959.83 | 954.08 | 950.21 | 945.24 | – | – | – | –
[2], x1 = 0.7067 | 969.67 | 964.17 | 960.12 | 955.22 | – | – | – | –
[2], x1 = 0.797 | 978.88 | 973.61 | 969.41 | 964.57 | – | – | – | –
[2], x1 = 0.9002 | 989.01 | 983.99 | 979.62 | 974.85 | – | – | – | –
[2], x1 = 1 | 998.44 | 993.65 | 989.15 | 984.37 | – | – | – | –

COc1ccccc1 [anisole] + Cc1ccccc1C
Conditions | mass density, 288.15 K [kg/m3] | mass density, 293.15 K [kg/m3] | mass density, 298.15 K [kg/m3] | mass density, 303.15 K [kg/m3] | refractive index, 288.15 K | refractive index, 293.15 K | refractive index, 298.15 K | refractive index, 303.15 K
[1], x1 = 0.0984 | – | – | – | – | 1.5091 | 1.5061 | 1.5033 | 1.5015
[1], x1 = 0.2473 | – | – | – | – | 1.5118 | 1.508 | 1.5052 | 1.5027
[1], x1 = 0.376 | – | – | – | – | 1.5141 | 1.5095 | 1.5067 | 1.5048
[1], x1 = 0.4951 | – | – | – | – | 1.516 | 1.5107 | 1.5079 | 1.5059
[1], x1 = 0.6454 | – | – | – | – | 1.5193 | 1.5128 | 1.51 | 1.508
[1], x1 = 0.7463 | – | – | – | – | 1.521 | 1.5145 | 1.5117 | 1.5096
[1], x1 = 0.864 | – | – | – | – | 1.5232 | 1.5156 | 1.5128 | 1.5107
[1], x1 = 0.938 | – | – | – | – | 1.5245 | 1.5164 | 1.5136 | 1.5114
[1], x1 = 0.9745 | – | – | – | – | 1.5252 | 1.5167 | 1.5139 | 1.5116
[1], x1 = 1 | – | – | – | – | 1.5256 | 1.5169 | 1.5141 | 1.5117
[2], x1 = 0.0984 | 894.18 | 890.01 | 886.52 | 881.84 | – | – | – | –
[2], x1 = 0.2473 | 910.8 | 906.56 | 902.92 | 898.24 | – | – | – | –
[2], x1 = 0.376 | 925.35 | 921 | 917.17 | 912.46 | – | – | – | –
[2], x1 = 0.4951 | 939.01 | 934.55 | 930.58 | 925.89 | – | – | – | –
[2], x1 = 0.6454 | 956.51 | 951.98 | 947.89 | 943.26 | – | – | – | –
[2], x1 = 0.7463 | 968.37 | 963.81 | 959.66 | 955.11 | – | – | – | –
[2], x1 = 0.864 | 982.31 | 977.72 | 973.49 | 968.92 | – | – | – | –
[2], x1 = 0.938 | 991.11 | 986.44 | 982.08 | 977.48 | – | – | – | –
[2], x1 = 0.9745 | 995.42 | 990.69 | 986.24 | 981.57 | – | – | – | –
[2], x1 = 1 | 998.44 | 993.65 | 989.15 | 984.37 | – | – | – | –
